Assay results as given in US10272117B2, “Methods of using an activator of cereblon for neural cell expansion and the treatment of central nervous system disorders” (Celgene Corporation, priority 2014, dated 2019).
Peptide text beside a SMILES is read from it. * marks the point of attachment. Cbz = O=C(OCc1ccccc1)*

How the values were obtained:
CRBN = assay: Detection of the CRBN ubiquitin ligase activity using live cells; assay type: cell-based; conditions: mammalian cells expressing FLAG-CRBN, immunoblotting
Experimental: This process was carried out basically in accordance with the method of Ohtake et al. See Ohtake et al., Nature, 446:562-566 (2007). MG132, which was a proteasome inhibitor, was applied to mammalian cells expressing CRBN fused with a FLAG epitope tag, and the cells were left still. Subsequently, the cells were disrupted, and from the resulting cell lysate solution, FLAG was purified, and CRBN was extracted. Then immunoblotting was performed under similar, but stricter, conditions to the above, whereby self-ubiquitination was detected and measured.

zebrafish embryos [1] = assay: Quantitative PCR of gene expression in zebrafish embryos; assay type: in vivo; conditions: 11 hpf
Experimental: BRD7-knockdown zebrafish embryos show similar phenotypes as CRBN-overexpressing zebrafish embryos. For example, expression of HuC in untreated, CRBN-overexpressing, and BRD7-knockdown zebrafish embryos was compared by quantitative PCR. Quantitative PCR was performed as follows: 1.7 μg of random […] and oligo-dT primed cDNA synthesized by ReverTra Ace qPCR RT Kit (TOYOBO, Japan) (as template) were used for reverse transcription by THUNDERBIRD™ SYBR® qPCR Mix (Toyobo, Japan). 0.25 mM of each forward and reverse primers were used in the reaction, wherein the sequence of the forward primer was 5′-[…]-3′ (SEQ ID NO: 9); and the sequence of the reverse primer was 5′-[…]-3′ (SEQ ID NO: 10).
Expression of Pou5f1 (Oct3/4), c-Myc, Sox2, and Nanog in zebrafish embryos was analyzed by quantitative PCR. Quantitative RT (qRT)-PCR was performed as follows: 1.7 μg of random hexamer and oligo-dT primed cDNA synthesized by ReverTra Ace qPCR RT Kit (TOYOBO, Japan) (as template) were used for reverse transcription by THUNDERBIRD™ SYBR® qPCR Mix (Toyobo, Japan). 0.25 mM of each forward and reverse primers was used in the reaction. The sequences of primers for c-Myc are as follows: forward primer is 5′-[…]-3′ (SEQ ID NO: 15), and reverse primer is 5′-GTAAAACGACGGCCAGT-3′ (SEQ ID NO: 16). The sequences of primers for sox2 are as follows: forward primer is 5′-ACCCCGGAGGAAAACCAA-3′ (SEQ ID NO: 17), and reverse primer is 5′-CCCGGCAGGGTGTACTTG-3′ (SEQ ID NO: 18). The sequences of primers for nanog are as follows: forward primer is 5′-TACCCAACACACCAGCTTC-3′ (SEQ ID NO: 19), and reverse primer is 5′-GAAGGGTGTTTTTGGAGGA-3′ (SEQ ID NO: 20).
Expression of a pool of three genes, Ascl1, Brn2 (Pou3f2), and Myt1la, is sufficient to directly reprogram embryonic and postnatal fibroblasts into functional neurons. See, e.g., Vierbuchen and Wernig, Nat Biotechnol. 29:892-907 […]. […] Primer sequences for amplification for Ascl1a are as follows: forward primer is 5′-ACGAGCATGACGCCGTA-3′ (SEQ ID NO: 21), and reverse primer is 5′-[…]-3′ (SEQ ID NO: 22). Primer sequences for amplification for Pou3f2b are as follows: forward primer is 5′-[…]-3′ (SEQ ID NO: 23), and reverse primer is 5′-[…]-3′(SEQ ID NO: 24). Primer sequences for amplification for Myt1la are as follows: forward primer is 5′-[…]-3′ (SEQ ID NO: 25), and reverse primer is 5′-[…]-3′ (SEQ ID NO: 26). FIG. […]
Notch3 and Neuropilin2b (Nrp2b) are required for cell proliferation progression. Notch3 regulates the timing of neural differentiation from undifferentiated or immature cells, and Nrp2b regulates cell proliferation and remodeling in mesenchymal stem cells by cooperating with PDGF (platelet-derived growth factor). Therefore, expression of Notch3 and Neuropilin 2b (Nrp2b) was analyzed in untreated and CRBN-overexpressing zebrafish embryos by quantitative PCR. The primers used for Notch3 are as follows: the sequence for forward primer is 5′-[…]-3′ (SEQ ID NO: 27), and the sequence for reverse primer is 5′-[…]-3′ (SEQ ID NO: 28). The primers used for Nrp2b are as follows: the sequence of forward primer is 5′-[…]-3′ (SEQ ID NO: 29), and the sequence of reverse primer is 5′-[…]-3′ (SEQ ID NO: 30). FIG. 29A is a histogram showing the mRNA level of Notch3 and Nrp2b in untreated, CRBN-overexpressing, and thalidomide-treated zebrafish embryos at 11 hpf by quantitative PCR. As shown, expression of Notch3 in the CRBN-overexpressing embryos increased to 1.8-fold of the level in the untreated embryos at 11 hpf, and expression of Nrp2b in the CRBN-overexpressing embryos increased to 2.7-fold of the level in the untreated embryos at the same stage.
Elval3 (Huc) is a neural progenitor marker. Expression of Elavl3 (Huc) was also analyzed by quantitative PCR and in situ hybridization. […]

zebrafish = assay: Resistance to thalidomide in brain development (brain thickness to body length); assay type: in vivo; conditions: BRD7-knockdown larvae, 400 μM thalidomide
Experimental: To analyze the functional relationship between thalidomide and BRD7, brain development of BRD7-knockdown zebrafish treated with thalidomide was examined and compared with that of normal zebrafish treated with thalidomide. […] FIGS. 12A and 12B show the normal zebrafish treated with 400 μM thalidomide. FIGS. 12C and 12D show the BRD7-knockdown zebrafish treated with 400 μM thalidomide. FIGS. 12A′ and 12C′ show the brain regions of the normal zebrafish treated with 400 μM thalidomide. FIGS. 12B′ and 12D′ show the brain regions of the BRD7-knockdown zebrafish treated with 400 μM thalidomide. […] The percentages of brain thickness to body length in the normal and the BRD7-knockdown zebrafish, with or without thalidomide treatments were also measured. […] The brain size of the BRD7-knockdown larvae incubated in thalidomide is 98.8% of that of the BRD7-knockdown larvae incubated in the absence of thalidomide.

zebrafish embryos [2] = assay: Brain size, morphology and volume of zebrafish embryos (microscopy, MRI); assay type: in vivo; conditions: 22 hpf
Experimental: An aqueous solution of a 25-mer antisense morpholino oligonucleotide (AMO, Gene Tools, LLC) corresponding to the vicinity of the translation initiation codon in the cDNA sequence of the gene to be knocked down ([…] injection conditions were the same as those used for RNA) was injected into the embryos at the 1-cell stage. The sequence of AMO used for the CRBN gene knockdown is 5′-[…]-3′ (SEQ ID NO: 3). The sequence of AMO used for the Lhx2 gene knockdown is 5′-[…]-3′ (SEQ ID NO:4). The sequence of AMO used for the BRD7 gene knockdown is 5′-[…]-3′ (SEQ ID NO:1). The sequence of AMO used for the Ikaros gene knockdown is 5′-[…]-3′ (SEQ ID NO:2). […]
In order to examine the effect of antagonists of BRD7 on brain growth, BRD7 was knocked down or over-expressed in zebrafish embryos. Knockdown of BRD7 was performed by microinjection of antisense morpholino oligonucleotides (AMO). Overexpression of BRD7 was performed by microinjection of synthesized capped mRNA. AMO or capped mRNA was introduced into one-cell stage embryos by using a nitrogen gas-pressure microinjector IM 300 (Narishige). Conditions for microinjection were as follows: gas pressure was about 15 picosiemens; release period was about 30 to about 50 milliseconds per single injection; concentrations of AMOs and capped mRNA were 400 ng/μl and 250 ng/μl in nuclease-free water, respectively. Capped mRNAs were synthesized in vitro using the mMESSAGE mMachine® in vitro transcription kit (Ambion) from cDNAs cloned into pCS2+ plasmids.
The brains of the embryos were examined for morphology and volume by magnetic resonance imaging (MRI). FIGS. 9A, 9B, and 9C show microscopic pictures of the untreated, the BRD7-knockdown, and the BRD7-overexpressing zebrafish embryos, respectively. FIGS. 9D, 9E, and 9F show fluorescent microscopic pictures of the brain regions of the untreated, the BRD7-knockdown, and the BRD7-overexpressing zebrafish embryos, respectively. As shown in these figures, the BRD7-knockdown zebrafish embryos had bigger heads than the untreated embryos. […] The volume of the whole brain of the BRD7-knockdown fish was much bigger than that of the untreated fish, while for the BRD7-overexpressing fish, the brain volume was smaller.
In order to examine the effect of antagonists of Ikaros on brain growth, Ikaros was knocked down or over-expressed in zebrafish embryos. Knockdown of Ikaros was performed by microinjection of antisense morpholino oligonucleotides (AMO). Overexpression of Ikaros was performed by injection of synthesized capped mRNA. AMO or capped mRNA was introduced into one-cell stage embryos by using a nitrogen gas-pressure microinjector IM 300 (Narishige). Conditions for microinjection were as follows: gas pressure was about 15 picosiemens; release period was about 30 to about 50 milliseconds per single injection; concentrations of AMOs and capped mRNA were 400 ng/μl and 250 ng/μl in nuclease-free water, respectively. Capped mRNAs were synthesized in vitro using the mMESSAGE mMachine® in vitro transcription kit (Ambion) from cDNAs cloned into pCS2+ plasmids.
The brains of the embryos were examined for morphology and volume by magnetic resonance imaging (MRI). FIGS. 15A, 15B, and 15C show microscopic pictures of untreated, Ikaros-knockdown, and Ikaros-overexpressing zebrafish embryos at 55 hpf, respectively. As shown in these figures, the Ikaros-knockdown fish had bigger heads than the untreated embryos. […] The volume of the whole brain of the Ikaros-knockdown fish was much bigger than that of the untreated fish, while for the Ikaros-overexpressing fish, the brain volume was smaller.

[3] = fold of level in untreated embryos

CC(C)C[C@@H](C=O)NC(=O)[C@H](CC(C)C)NC(=O)[C@H](CC(C)C)NC(=O)OCc1ccccc1 [MG132] (Cbz-Leu-Leu-Leu-aldehyde)
bands representing CRBN-containing (self-ubiquitinated) proteins (CRBN): a number of bands representing CRBN-containing proteins were detected

O=C1CCC(N2C(=O)c3ccccc3C2=O)C(=O)N1 (centres unmarked) [thalidomide, reference compound]
expression of Nanog (change) (zebrafish embryos [1]; FIG. 13): decreased
expression of Pou5f1 (change) (zebrafish embryos [1]; FIG. 13): decreased
expression of Zic3 (change) (zebrafish embryos [1]; FIG. 13): decreased
Notch3 mRNA expression (zebrafish embryos [1]; [3]): 0.3 fold
Nrp2b mRNA expression (zebrafish embryos [1]; [3]): 0.4 fold
brain size of BRD7-knockdown larvae incubated in thalidomide relative to absence of thalidomide (zebrafish): 98.8%

B1: ikzf1-007: Ikaros variant lacking exons 4 and 7, overexpressed as fused Ikzf1:EGFP protein in zebrafish embryos (nucleic acid)
DNA: ATGGAGACTGAGGAGGCACAGGAAATGTCCCAGATAACAGGAAGAGACAGCCCGATGAATGCTAATGAAGGCGGAGAGGATCAAGATGAGGCCATGCCTGTTCCTGAAGACTTGTCAGCAAGCACTGGCCTCCAACACAACAATCGCACAGATAAACCACTGGCCTGTAATATAAAAGTTGAGGCTCGGAGTGACGAGGAAAACGGTCTGTCCTGTGAGATGAATGGAGAGGCAGAGGAATGTGCAGCTGAGGACTTGCGCATACTCGATGGCTCTGGGGCCAAAGTGAACGGCTCCCACGCAGGCCCCGACAGCAAGCCGGCCGCCTACCCCACAGCCGGGGGCATCCGCCTCCCCAACGGGAAGCTGAAGTGCGATATCTGTGGGATAGTTTGCATTGGGCCCAATGTGTTGATGGTTCACAAGCGAAGTCACACTGGTGAAAGGCCATTCCAGTGCAATCAATGTGGTGCTTCATTCACTCAGAAGGGTAACCTGCTCCGACACATCAAACTTCACTCTGGCGAGAAACCTTTCAAATGTCACCTGTGCAACTATGCTTGCCGCCGCAGAGACGCTCTCACTGGACATCTGCGCACTCATTCGGTTGGAAAGCCCCATAAGTGTGCATATTGCGGACGCAGTTACAAGCAGCGGAGCTCACTGGAGGAACATAAGGAGAGATGTCACAACTACTTGCAGTGCATGGGCCTTCAGAACAGCATTTATACAGGAGAGAATCGTCTGTCAGAGCTATCTTTCGAGAGTGGCTCANGTGAGCTGATGCAGCCCCATGTGATTGATCAGGCCATCAACAGTGCAATTAGCTATCTGGGTGCAGAGTCCTTGCGGCCTCTGGTTCAGACCTCTCCTGGGTCCGCCGACATGGTGGTCAGCCCTCTATACAACCTGCACAAGTCACAAACAGCTGAAGGCAATGGTGTTTCTGCTAAAGACAGCGCCGCAGAGCACCTTCTCCTACTCTCTAAGTCCAAATCCGCCTCTGTTGACAAAGACGGTTCCCCCAGTCCCAGCGGGCAGGATTCCACTGACACTGAGAGCAACAACGAGGAGCGTTCGGCCGGGGTAAGCGGAACAGCAGCCACAGGTGGTCTCATCTACCTGACCAACCACATGGCTCCAGGTATGAGAAATGGAGGCCTGCCAGGGGTAAAGGAAGAACAACACCGGCAGTTTGAGGCTTTGCGAGCAGCAGGAATGGATTTGAGTATAGCGTCATCAGAAGGATTTAAGGTGCTAAGTGGAGATGGAGAAGAATTGAGGGCGTACCGCTGTATCCACTGCAGAGTTTTGTTCCTGGATCATGTCATGTACACCATCCACATGGGCTGTCATGGCTTCCGAGACCCCTTTGAGTGCAACCTATGCGGGTACCGCAGTCAGGACCGTTATGAGTTCTCATCGCACATCACACGTGGAGAGCACCGCATCTGA
modifications: fused to EGFP; nucleotide sequence of ikzf1-007 Ikaros variant; 775 n = A,T,C or G
notes: Ikaros variant lacking exons 4 and 7, overexpressed as fused Ikzf1:EGFP protein in zebrafish embryos
brain development (zebrafish embryos [2]): reduction of brain development
